Measurements published in US20240383843A1, “MC3-Type Lipids” (NanoVation Therapeutics Inc., priority 2021, published 2024).
In brackets after ≈: the same amount, converted by molar mass.

Experiments:
[1] = system: FVII gene; conditions: mice, siRNA formulation; Jayaraman et al., 2012; cited from earlier work
[2] = system: 22Rv1 cells modified to stably express luciferase; assay: Luciferase knockdown by siRNA-containing LNPs in 22Rv1 cells stably expressing luciferase; format: cell-based; conditions: Homo sapiens, siRNA-LNP 50/10/38.5/1.5 mol %, N/P 3, read-out: half maximal effective siRNA concentration (EC50)
Method: The LNPs contain 50/10/38.5/1.5 mol % of ionizable lipid/DSPC/chol/PEG-DMG (N/P=3) and the siRNA encodes luciferase.
An siRNA targeted against firefly luciferase purchased from Integrated DNA Technologies (IDT, Coralville, IA) was used to assess ability of LNP to knockdown firefly luciferase in a cell line.
LNP formulations containing the ionizable lipids, nor-MC3 or MC3, DSPC, cholesterol, and PEG-DMG were prepared containing siRNA encoding luciferase as described above. The lipid nanoparticles comprise 50/10/38.5/1.5 mol % of ionizable lipid/DSPC/chol/PEG-DMG and the nitrogen-to-phosphorus ratio (N/P) was 3.

| Structure (SMILES) | ED50 for FVII gene silencing [1] | EC50 [2] |
| --- | --- | --- |
| CCCCC/C=C\C/C=C\CCCCCCCCC1(CCCCCCCC/C=C\C/C=C\CCCCC)OCC(CCN(C)C)O1 (centres unmarked) [KC2] | 0.1 mg/kg | – |
| CCCCC/C=C\C/C=C\CCCCCCCC(CCCCCCC/C=C\C/C=C\CCCCC)OC(=O)CCCN(C)C [nor-MC3, (6Z,9Z,26Z,29Z)-Pentatriaconta-6,9,26,29-tetraen-18-yl 4-(dimethylamino)butanoate] | – | 0.164 µg/mL (≈ 0.268 µM) |
